Reference: patent publication US8937096B2, “Use of benzo-fused heterocyle sulfamide derivatives for the treatment of mania and bipolar disorder” (priority 2005, dated 2015)

Key:
Sprague Dawley rats = assay: Forced Swim Test (Acute); type: in vivo, rat
Description: The Forced Swim test (FST) is a commonly used procedure to screen compounds for possible antidepressant properties. This test is also known as the behavioral despair test. Rodents placed in […] tanks filled with water present a wide variety of escape or immobility behaviors. Antidepressant drugs from different classes markedly increase escape behaviors and/or decrease latency or duration of immobility.
Venlafaxine and desipramine were dissolved in water. All drugs and their vehicles were administered orally (p.o.) by gavage in a volume of 5 mL/kg.
Male Sprague Dawley rats (140 to 160 g) from Charles River Laboratories Wilmington, Mass. were used. The animals went through a five-day quarantine period before being subjected to the experimental procedure.
Animals were housed in groups of four in plastic cages at an ambient temperature of 21° C. to 23° C. with an automated 12 hour light/dark cycle and access to water and commercial rodent food ad libitum. Animals were not handled more than for the routine bedding change prior to pre-test swim session.
Each experiment consisted of seven treatment groups with n=4 animals per group. A total of 28 animals per experiment were used. Two consecutive experiments (1 and 2, 3 and 4, and 5 and 6) were exact replicas of each other. […] One treatment group of n=4 animals in each experiment was a vehicle treated group. […] In experiments 5 and 6 the effects of venlafaxine and maprotyline at 12 mg/kg, 30 mg/kg, and 60 mg/kg were tested.
The basic apparatus consisted of a cylinder (46 cm tall×˜20 cm diameter) filled with water to 30 cm deep, at a temperature of 25±1° C. The automated version of the FST was used to perform the experiments. Plumbing for automatic filling and emptying water connected the four cylinders. Cylinders were placed in the dividing chambers 25 cm wide to separate animals visually. Each 5-minute experimental session was videotaped and analyzed in real time by computer software (Clever Systems, Inc.) for four animals at a time. The immobility, swimming, climbing and escape times were recorded by the software. The four activities are defined as follow. Immobility: the animal floats motionlessly or makes only those movements necessary to keep its head above water; Climb: the animal vigorously moves vertically while scratching the wall around the cylinder; Swim: the animal moves horizontally around in the cylinder more than necessary to keep its head above water; and Escape: sum of all vigorous active movements.
The ability of a test compound to decrease the duration or frequency of immobility, or changes in swimming, climbing and escape times, was measured using the FST procedure described above. […] The analysis of the results in the studies described was focused on the immobility time during 5-minute test session.
There were two swim sessions in each experiment. First, a pre-test swim session for 15 minutes was performed. Following 48 hours later was a test session of 5-minute duration. Upon completion of a swim session, each animal was placed under a heat lamp in a cage with soft bedding for approximately 15 minutes to prevent hypothermia.
Animals were pre-treated with a vehicle or test compound after completing the pre-test swim session, then 24 hours later and then shortly prior to the 5-minute test session; i.e., three injections were given to each animal between the two swim sessions that occurred on 3 consecutive days.
Data were analyzed using GraphPad Prism software (GraphPad Software, Inc. San Diego, Calif.). For the comparison of the effect of different doses for various drugs on immobility in the FST one-way ANOVA was used followed by Dunnett's multiple comparison test. […] The ED50 and Emax values were statistically compared using two-tail t-test.

Wistar rats = assay: Chronic Mild Stress Model (Chronic); type: in vivo, rat
Source text: In the chronic mild stress (CMS) model rats subjected to a variety of mild stressors for a prolonged period of time show, among other behavioral, biochemical and physiological impairments, a substantial decrease in their responsiveness to rewarding stimuli. This deficit is usually monitored by a decrease in the consumption of the 1% sucrose solution, but can also be seen in other tests, such as place preference conditioning or intracranial self-stimulation. Since the subsensitivity to reward appears to reflect anhedonia (inability to experience pleasure), which is a core symptom of major depressive disorders, the CMS procedure may serve as a suitable research tool in studies into the mechanisms of antidepressant action.
Male Wistar rats were brought into the laboratory two months before the start of the experiment. Except as described below, the animals were singly housed with food and water freely available, and were maintained on a 12-h light/dark and in a constant temperature (22±2° C.) and humidity (50±5%) conditions.
The animals were first trained to consume a 1% sucrose solution; training consisted of eight 1 h baseline tests in which sucrose was presented, in the home cage, following 14 h food and water deprivation; the sucrose intake was measured by weighing pre-weighed bottles containing the sucrose solution, at the end of the test. Subsequently, sucrose consumption was monitored, under similar conditions, at weekly intervals throughout the whole experiment.
On the basis of their sucrose intakes in the final baseline test, the animals were divided into two matched groups. One group of animals was subjected to the chronic mild stress procedure for a period of 7 consecutive weeks. […]
All results obtained in this study were analyzed by multiple analyses of variance with three between-subjects factors (stress/control, drug treatments and successive sucrose tests). […]

[1] = Median toxic dose (TD50) / toxic doses of Compound #8 and reference drugs; settings: Sprague-Dawley, rat, in vivo, ip

For `COc1ccc(C(CN(C)C)C2(O)CCCCC2)cc1` (stereo not shown) [Venlafaxine, venlafaxine, reference compound], the “doses at which effect on immobility was statistically significant vs vehicle” value (Sprague Dawley rats; p.o.) was 30 mg/kg and 60 mg/kg and the “treatment time after which increases in sucrose intake in stressed animals reached statistical significance vs Week 0” value (Wistar rats; stressed animals, i.p. once daily) was “four weeks”.
With `NS(=O)(=O)NC[C@H]1COc2cc(Cl)ccc2O1` [Compound #8, (2S)-(−)-N-(6-Chloro-2,3-dihydro-benzo[1,4]dioxin-2-ylmethyl)-sulfamide] the “effect on immobility vs control” value (Sprague Dawley rats; 30 mg/kg p.o., large variability between individual rats) was “not significantly different from control”, the “Emax (immobility) in the FST” value (Sprague Dawley rats; p.o.) was 67.0 ± 11.6 s and the “doses at which effect on immobility was statistically significant vs vehicle” value (Sprague Dawley rats; p.o.) was 12 mg/kg, 60 mg/kg, and 120 mg/kg. The “activity in the CMS model of depression” value (Wistar rats; 12, 30 or 60 mg/kg i.p.) was “inactive in the CMS model of depression” and the TD50 [1] was about 100 mg/kg.
